{
  "source": "paper PMC7482436",
  "about": "“Optopharmacology reveals a differential contribution of native GABAA receptors to dendritic and somatic inhibition using azogabazine” (Neuropharmacology, 2020)",
  "key": {"[1]": {"assay": "1H NMR of cis:trans isomer ratio and isomer stability under different light conditions", "type": "physicochemical", "experimental": "For most of the study azogabazine was kept in darkness to ensure a stock of near-100% trans-isomer. Unless stated otherwise, experiments were performed in near-darkness (under red light) when making azogabazine stocks (1 mM stock solution in DMSO), and when pre-exposing stock solutions to UV or blue light using wavelength specific LEDs. Pre-exposure of azogabazine (stock) to UV or blue light was undertaken by positioning a UV (365 nm) or blue (470 nm) OptoLED (Cairn Research Ltd, Faversham, UK) 2–3 mm above a 500 μl droplet on parafilm and exposing for 2 min at maximum light intensity to ensure attainment of equilibrium between cis and trans isomers. The UV LED was operated at 1.2 A to achieve a light intensity output at the surface of the droplet of 5.3 mW. By comparison, the Blue LED was run at 0.9 A for a light intensity output of 8.1 mW at the surface of the droplet.\nTo physically assess the photo-conversion efficiency between the cis and trans isomers we determined the proton (^1H)-NMR spectra for azogabazine ([…]) in deuterated DMSO under different light conditions. Initially, azogabazine was retained in complete darkness for >14 days and then stored under similar dark conditions. This drove the cis:trans equilibrium almost completely towards the more thermodynamically stable trans isomer (Fig. 1C). […] By integrating the ^1H NMR spectra, long-term darkness produced ~100% of trans-azogabazine, whereas the UV (365 nm) exposure produced an equilibrium of ~85% cis to 15% trans isomers. […] Thus, switching the wavelength of light produced substantive photoisomerisation of azogabazine.\nFig. 2 Azogabazine isomerization and isomer stability. (A), Stability plot for the cis-isomer for non-dark adapted azogabazine samples exposed to different wavelengths of light: λ 365, 405, 470, 530, 565 nm, and near-infrared (NR), prior to ^1H NMR. […] A long (60 s) period of UV-exposure was needed to reach a maximal equilibrium conversion ratio of ~85 : 15% for cis: trans isomers. […] (B), The stability of a UV exposed and established cis: trans ratio is dependent on subsequent storage conditions. If the UV-exposed sample is subsequently kept in ambient light (blue line), the cis:trans ratio changes over ~ 2–4 h towards ~25% cis: 75% trans remaining stable over 10 days (dashed blue line). By contrast, the UV-exposed sample remained stable (~85% cis: 15% trans) over 24 h if subsequently kept in darkness (red line). However, over 10 days, conversion to a predominant trans-form was evident (dashed red line). Finally, when a sample which had been kept in ambient light (~25% cis: 75% trans) was then placed and stored in darkness, it remained stable over 24 h (green line) but slowly converted again to the trans form over 10 days (dashed green line).\nTo investigate the dynamic relationship between the two azogabazine isomers, we investigated the effect of azogabazine in solution under conditions that result in three different ratios of trans: cis isomers. These included: a dark-adapted solution (trans 100: cis 0%); one pre-exposed for 60 s to blue light (trans 75: cis 25%); and a third exposed for the same duration to UV light (trans 15: cis 85%). […] All subsequent experiments were performed in near-darkness and within 3 h after the trans: cis ratios were established to ensure the stability of the isomers during experimentation. […] The later provides assurance as to the relative time stability of the cis and trans isoforms of azogabazine."}, "cerebellar granule cells [2]": {"test_system": "cerebellar granule cells", "assay": "Voltage clamp of GABA-mediated IPSCs in cultured cerebellar granule cells with membrane-delimited UV spot", "type": "cell-based, Sprague Dawley rats", "conditions": "for mean IPSC amplitude recovered with UV light / IPSC frequency normalised to 100 μm^2 membrane area: 1 μM azogabazine; for mean IPSC amplitude recovered with UV light: −60 mV, n = 12"}, "α1β2γ2L GABAARs [3]": {"target": "T1, α1β2γ2L GABAARs (Mus musculus, UniProt P62812+P63137)", "T1 construct": "expressed in transfected cells; host or cells: HEK293", "T1 sequence (P62812 28-455)": "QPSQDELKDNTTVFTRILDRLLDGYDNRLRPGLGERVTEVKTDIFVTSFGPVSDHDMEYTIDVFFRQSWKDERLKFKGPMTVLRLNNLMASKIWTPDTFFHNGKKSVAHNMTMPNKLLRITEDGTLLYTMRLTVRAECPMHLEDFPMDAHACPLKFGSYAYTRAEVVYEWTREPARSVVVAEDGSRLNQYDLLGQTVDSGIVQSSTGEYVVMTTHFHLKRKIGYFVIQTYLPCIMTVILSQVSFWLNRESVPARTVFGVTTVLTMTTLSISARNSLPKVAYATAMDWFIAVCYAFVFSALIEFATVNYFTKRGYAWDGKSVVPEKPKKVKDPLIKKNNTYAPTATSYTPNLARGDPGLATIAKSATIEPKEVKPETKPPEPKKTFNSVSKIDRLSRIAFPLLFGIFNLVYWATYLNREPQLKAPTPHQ", "T1 sequence (P63137 25-512 limits assumed)": "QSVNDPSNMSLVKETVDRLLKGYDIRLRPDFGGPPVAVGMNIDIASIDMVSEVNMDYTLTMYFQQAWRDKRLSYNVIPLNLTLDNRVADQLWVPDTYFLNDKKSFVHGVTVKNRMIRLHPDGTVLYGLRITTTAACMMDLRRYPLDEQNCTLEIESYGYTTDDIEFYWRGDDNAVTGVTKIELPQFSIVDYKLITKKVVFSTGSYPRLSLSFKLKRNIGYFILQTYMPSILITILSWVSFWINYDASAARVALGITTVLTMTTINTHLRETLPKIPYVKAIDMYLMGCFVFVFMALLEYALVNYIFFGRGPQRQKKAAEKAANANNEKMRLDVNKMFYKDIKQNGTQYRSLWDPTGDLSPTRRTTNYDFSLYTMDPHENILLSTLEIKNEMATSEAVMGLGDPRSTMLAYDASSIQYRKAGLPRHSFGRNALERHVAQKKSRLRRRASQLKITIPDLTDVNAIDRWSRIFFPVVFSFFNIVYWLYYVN", "T1 sequence (P22723 39-474 partner)": "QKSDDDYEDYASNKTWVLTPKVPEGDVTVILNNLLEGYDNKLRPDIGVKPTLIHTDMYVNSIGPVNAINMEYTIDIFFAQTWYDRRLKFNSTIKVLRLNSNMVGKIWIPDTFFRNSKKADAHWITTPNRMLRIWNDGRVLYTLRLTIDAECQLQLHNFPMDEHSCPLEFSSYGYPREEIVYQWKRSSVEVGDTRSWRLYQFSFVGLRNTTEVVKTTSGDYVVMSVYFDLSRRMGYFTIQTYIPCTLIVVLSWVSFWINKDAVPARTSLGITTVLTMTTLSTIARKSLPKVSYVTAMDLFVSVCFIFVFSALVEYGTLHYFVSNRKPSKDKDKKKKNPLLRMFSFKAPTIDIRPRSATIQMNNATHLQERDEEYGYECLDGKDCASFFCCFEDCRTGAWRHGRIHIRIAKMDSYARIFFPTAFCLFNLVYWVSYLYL", "parameters": "method as in Huckvale et al., 2016", "conditions": "normal ambient daylight; ref Huckvale et al., 2016; cited from earlier work"}, "α1β2γ2L GABAARs [4]": {"target": "T1, α1β2γ2L GABAARs", "assay": "Whole-cell patch clamp of GABA currents, recombinant α1β2γ2L GABAARs in HEK293 cells", "type": "cell-based, murine", "conditions": "for IC50: 10 μM GABA"}, "cerebellar granule cells [5]": {"test_system": "cerebellar granule cells", "assay": "Current clamp of action potential firing in cultured cerebellar granule cells with membrane-delimited UV spot", "type": "cell-based, Sprague Dawley rats", "conditions": "1 μM azogabazine; for inhibition at 1 µM: Rattus norvegicus", "experimental": "Dissociated cerebellar cultures were prepared from cerebellar tissue taken from postnatal day 4 (P4) Sprague Dawley rats. Tissue blocks were incubated in trypsin for 10 min (0.1% w/v), washed in Hanks Balanced Salt Solution (HBSS), and then triturated in DNase (0.05% w/v in 12 mM MgSO4). Cells were plated on poly-L-ornithine coated 22 mm glass coverslips in Basal Medium Eagle (BME) supplemented with 0.5% (w/v) glucose, 5 mg/l insulin, 5 mg/l transferrin, 5 mg/l selenium, 20 u/ml penicillin-G and 20 μg/ml streptomycin, 0.2 mM glutamine, 1.2 mM NaCl, and 5% (v/v) fetal calf serum. The neuronal culture was then allowed to develop for 7–10 days at 37 °C in humidified air with 5% CO2 before used for experiments.\nTo initiate photo-isomerization of azogabazine, optical light paths were used to convey UV laser (Obis [375 nm], Coherent Inc., Santa Clara, USA) or blue LED light (OptoLED [470 nm], Cairn Research Ltd, Faversham, U.K.) through a variable diaphragm (for setting the illuminated spot-diameter), and finally through a water-immersion objective (Nikon, NIR Apo 40×/0.8w) to the cells. The diaphragm was kept fully open for whole cell light exposure experiments and reduced to generate small spots (~8–12 μm) when exposing soma or proximal dendritic areas. The illuminated spot size and position could be adjusted during experiments. Whereas the blue LED could be operated at high power (8.1 mW) during experiments, the UV laser output was empirically adjusted to 2 mW (4% of maximum operating power) to avoid cell damage, but still sufficient to adequately azogabazine isomerization. To adjust the size and position of the illuminated spot, a 440 nm white LED pilot light and a 515 nm long-pass filter were used before switching to UV or blue light.\nIPSCs from cerebellar granule cells were detected post-hoc using WinEDR 3.5.6, and analysed for frequency, amplitude, rise time and weighted decay tau using WinWCP 4.9.6. Action potentials from cerebellar granule cells were recorded under current-clamp and were similarly detected with WinEDR 3.5.6. Data were subjected to statistical analyses (ANOVA, paired and unpaired Student t-tests).\nTo assess neuronal excitability and GABA inhibition, current clamp recordings were performed from cultured granule cells to monitor action potential generation in the presence of 1 μM azogabazine before and after applying UV light."}, "[6]": {"conditions": "UV 365 nm exposure for 60 s, equilibrium"}, "[7]": {"conditions": "blue light 470 nm for 60 s, photostationary state"}},
  "note": "Read-outs that look alike come from different tables or passages of the source.",
  "data": [
    {"smiles": "N=c1ccc(-c2ccc(N=Nc3ccccc3)cc2)nn1CCCC(=O)O", "note": "[azogabazine]", "values": [
      {"measurement": "cis isomer fraction", "setting": "[1]; [6]", "value": "~ 85%"},
      {"measurement": "trans isomer fraction", "setting": "[1]; [6]", "value": 15, "unit": "%"},
      {"measurement": "time for UV-established cis:trans ratio to change towards ~25% cis: 75% trans", "setting": "[1]; UV-exposed sample kept in ambient light", "value": "2 to 4", "unit": "h"},
      {"measurement": "cis isomer fraction", "setting": "[1]; [7]", "value": 25, "unit": "%"},
      {"measurement": "trans isomer fraction", "setting": "[1]; [7]", "value": "approximately 75%"},
      {"measurement": "trans isomer fraction", "setting": "[1]; long-term darkness, deuterated DMSO", "value": "~ 100%"},
      {"measurement": "block of GABA-mediated IPSCs", "setting": "cerebellar granule cells [2]; 1 μM azogabazine (saturating), dark-adapted", "value": "rapidly blocked all the GABA-mediated IPSCs"},
      {"measurement": "mean IPSC amplitude recovered with UV light", "setting": "cerebellar granule cells [2]; UV spot directed to soma", "value": "−74 ± 16", "unit": "pA"},
      {"measurement": "IPSC frequency normalised to 100 μm^2 membrane area", "setting": "cerebellar granule cells [2]; UV spot on proximal dendrites", "value": "4.2 ± 0.9", "unit": "Hz"},
      {"measurement": "mean IPSC amplitude recovered with UV light", "setting": "cerebellar granule cells [2]; UV spot on proximal dendritic zones", "value": "−41 ± 7", "unit": "pA"},
      {"measurement": "IPSC frequency normalised to 100 μm^2 membrane area", "setting": "cerebellar granule cells [2]; UV spot on soma", "value": "1.8 ± 0.3", "unit": "Hz"},
      {"measurement": "IC50", "setting": "α1β2γ2L GABAARs [3]", "value": 22.6, "unit": "nM"},
      {"measurement": "pIC50", "setting": "α1β2γ2L GABAARs [3]", "value": "7.65 ± 0.14"},
      {"measurement": "block of GABA current", "setting": "α1β2γ2L GABAARs [4]; 1 μM azogabazine co-applied with 10 μM GABA, ambient daylight", "value": "near complete block"},
      {"measurement": "remaining activity at 1 µM", "setting": "α1β2γ2L GABAARs [4]; HEK293, read-out: GABA current recovery during UV light exposure, % of control GABA current, 1 μM azogabazine (not dark-adapted) + 10 μM GABA, UV light, n = 8", "value": "64 ± 9", "unit": "%"},
      {"measurement": "remaining activity at 1 µM", "setting": "α1β2γ2L GABAARs [4]; HEK293, 1 μM azogabazine (not dark-adapted) + 10 μM GABA, blue light, n = 8, read-out: GABA current during blue light exposure, % of control", "value": "6 ± 3", "unit": "%"},
      {"measurement": "IC50", "setting": "α1β2γ2L GABAARs [4]; UV pre-exposed azogabazine (365 PE, ~15% trans)", "value": 104, "unit": "nM"},
      {"measurement": "IC50", "setting": "α1β2γ2L GABAARs [4]; dark-adapted azogabazine (~100% trans), wild-type", "value": 21.1, "unit": "nM"},
      {"measurement": "inhibitory potency of dark-adapted versus UV pre-exposed azogabazine", "setting": "α1β2γ2L GABAARs [4]; dark-adapted higher than UV pre-exposed", "value": 5, "unit": "fold"},
      {"measurement": "spike frequency", "setting": "cerebellar granule cells [5]; before UV", "value": "8.4 ± 3.3", "unit": "Hz"},
      {"measurement": "burst frequency", "setting": "cerebellar granule cells [5]; burst firing cells", "value": "1.1 ± 0.3", "unit": "Hz"},
      {"measurement": "individual spikes per burst", "setting": "cerebellar granule cells [5]; burst firing cells", "value": "11 ± 3"},
      {"measurement": "inhibition at 1 µM", "setting": "cerebellar granule cells [5]; UV on proximal dendritic zones, normalised to exposed area, read-out: inhibition of individual spike generation after UV isomerization", "value": "50 ± 17", "unit": "%"},
      {"measurement": "inhibition at 1 µM", "setting": "cerebellar granule cells [5]; UV on proximal dendritic zones, read-out: inhibition of spike burst generation after UV isomerization", "value": "60 ± 9", "unit": "%"},
      {"measurement": "inhibition at 1 µM", "setting": "cerebellar granule cells [5]; UV on somatic membrane, normalised to exposed area, read-out: inhibition of individual spike generation after UV isomerization", "value": "18 ± 3", "unit": "%"},
      {"measurement": "inhibition at 1 µM", "setting": "cerebellar granule cells [5]; UV on somatic membrane, read-out: inhibition of spike burst generation after UV isomerization", "value": "25 ± 3", "unit": "%"}
    ]}
  ]
}
